Here are results for eight compounds from patent US5102871A, “Nutrient composition” (Kyowa Hakko Kogyo Co., Ltd., priority 1989, dated 1992).

A short description of one data set: Solubility in water. Conditions: pH 6.5, 25° C. The class given is physicochemical.
For data set [1] the following is noted: 25° C.; background statement; cited from earlier work.
Data set [2] is described as follows: In vitro hydrolysis in human plasma. The class given is in vitro ADME. Conditions: 37° C., 30 minutes; for remaining at 0.5 h, 2.18 mM: read-out: Residual amount in plasma (%). On the procedure:
It was thus recognized that there was a clear difference between these peptides with respect to utilization in vivo.
To 100 μl of plasma collected and prepared from human was added 10 μl of a 24 mM solution of a peptide in physiological saline. After reaction at 37° C. for 30 minutes, the amount of the remaining peptide was determined.

Data set [3] can be described thus: In vitro hydrolysis in mouse plasma. The conditions noted are these: 37° C., 30 minutes; for remaining at 0.5 h, 2.46 mM: male, C3H/He mouse plasma, mean of five mice, read-out: Residual amount in plasma (%). The data set is classed as in vitro ADME, C3H/He mouse. How it is done: To 50 μl of plasma collected and prepared from C3H/He mouse (6 weeks of age, male, weighing 22 g) was added 5 μl of a 27.1 mM solution of a peptide in physiological saline, followed by reaction at 37° C. for 30 minutes.

Data set [4] is described as follows: Stability on heating in jelly-like nutrient preparation (Example 3). The data set is classed as physicochemical. The conditions noted are these: 100° C. for 30 minutes, Example 3 composition.
Data set [5] is described as follows: Uptake by mouse kidney after tail vein administration. The class given is in vivo, C3H/He mice. Conditions: 250 μmoles/kg tail vein, mean (SEM on next line).
Description: Uptake of γ-Glu-Cys-Cys and (γ-Glu-Cys)2 by mouse kidney was compared with that of (Ala-Cys)2 according to the test method described below.
Physiological saline solutions of γ-Glu-Cys-Cys, (γ-Glu-Cys)2 and (Ala-Cys)2 were administered respectively to groups of C3H/He mice (6 weeks of age, male, weighing 22 g) through the tail vein in a dose of 250 μmoles/kg body weight, and the kidney was excised 1, 5 and 20 minutes after the administration, followed by determination of glutamic acid, alanine and cystine in the kidney.
Data set [6] deals with T1, γ-glutamyltransferase prepared from swine kidney (Sus scrofa, UniProt P20735).
T1 construct: γ-glutamyltransferase prepared from swine kidney; from tissue; host or cells: swine kidney
The experiment in a line: Hydrolysis by γ-glutamyltransferase. The data set is classed as biochemical. The conditions noted are these: 5 mM peptide, Tris-hydrochloride buffer pH 7, 37° C., 120 minutes. On the procedure:
It was thus recognized that there was a difference between these peptides with respect to utilization in vivo.
A peptide was dissolved in Tris-hydrochloride buffer solution (pH 7) in a concentration of 5 mM and γ-glutamyltransferase prepared from swine kidney was added to the solution. After reaction at 37° C. for 120 minutes, the amount of the remaining peptide was determined.

For data set [7] the following is noted: administered subcutaneously to mice; Anderson and Meister 1983; cited from earlier work.
Data set [8] can be described thus: Stability in solution on heat treatment and on standing. The data set is classed as physicochemical. Conditions: 10 mM.

Structures are written as SMILES. Bridge positions count the residues as written; N and C are the ends. Peptide text beside a SMILES is read from it. I, II: the chains in the order shown.

T1 sequence (P20735 1-379 limits assumed): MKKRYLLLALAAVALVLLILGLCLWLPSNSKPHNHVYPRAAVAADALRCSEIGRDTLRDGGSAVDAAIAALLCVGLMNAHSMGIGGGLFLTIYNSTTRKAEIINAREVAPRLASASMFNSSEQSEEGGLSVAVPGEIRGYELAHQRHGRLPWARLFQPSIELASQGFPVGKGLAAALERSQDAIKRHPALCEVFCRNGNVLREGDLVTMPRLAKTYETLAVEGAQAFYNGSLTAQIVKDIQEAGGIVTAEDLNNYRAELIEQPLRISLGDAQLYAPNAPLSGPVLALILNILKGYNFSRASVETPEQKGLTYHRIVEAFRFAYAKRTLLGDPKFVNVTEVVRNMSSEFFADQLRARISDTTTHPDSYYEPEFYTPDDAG
T1 sequence (P20735 380-568 limits assumed): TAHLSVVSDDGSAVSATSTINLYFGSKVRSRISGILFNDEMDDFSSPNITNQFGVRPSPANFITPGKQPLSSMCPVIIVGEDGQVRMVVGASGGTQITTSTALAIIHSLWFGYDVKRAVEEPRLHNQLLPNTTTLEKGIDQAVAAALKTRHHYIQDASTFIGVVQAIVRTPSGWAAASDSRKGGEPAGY
Excerpt for Solubility in water: The solubility of γ-Glu-Cys-Cys and (γ-Glu-Cys)2 was compared with that of cystine and known cystine-containing peptides.

In the case of `N[C@@H](CS)C(=O)NCCCC[C@H](NC(=O)[C@@H](N)CS)C(=O)O` [Cys-Lys(Cys), N^2 -cysteinyl-N^6 -L-cysteinyl-L-lysine] (H-Cys-Lys(Cys)-OH), the “Solubility in 1000 ml of water” value in “Solubility in water” is listed as above 50 g.
With `N[C@@H](CSSC[C@H](N)C(=O)O)C(=O)O` [Cystine, L-cystine], the solubility in water entry in data set [1] was “less than 0.11 g/l”. Further, in “Solubility in water”, the “Solubility in 1000 ml of water” value turned out to be 0.1 g.
Regarding `NCC(=O)N[C@@H](CSSC[C@H](NC(=O)CN)C(=O)O)C(=O)O` [(Gly-Cys)2, bis-glycyl-L-cystine, reference compound] (I: H-Gly-Cys-OH / II: H-Gly-Cys-OH; disulfide I:2-II:2), the “Solubility in 1000 ml of water” value in “Solubility in water” is above 50 g. Also, in data set [2], the remaining at 0.5 h, 2.18 mM was 35%.
On to `N[C@@H](CCC(=O)N[C@@H](CSSC[C@H](N)C(=O)O)C(=O)O)C(=O)O` [γ-Glu-Cys-Cys], for which the remaining at 0.5 h, 2.46 mM in data set [3] was 53%. For the same compound, the “Hydrolysis in mouse plasma” value in data set [3] is reported as “hydrolyzed in plasma only with difficulty”. Also, the “Solubility in 1000 ml of water” value in the data set “Solubility in water” is above 70 g. In addition, in data set [4], the “Stability under heating of the jelly-like preparation” value was “stably maintained”. For the same compound, the “Glu (glutamic acid) in kidney” value is recorded as 5.54 μmole/g wet weight of kidney in [5] (0 min after administration), 13.09 μmole/g wet weight of kidney in [5] (1 min after administration), 20.32 μmole/g wet weight of kidney in [5] (5 min after administration) and 15.1 μmole/g wet weight of kidney in [5] (20 min after administration). Further, the “Hydrolysis in human plasma” value in data set [2] is recorded as “hydrolyzed in plasma only with difficulty”. In data set [2], the remaining at 0.5 h, 2.18 mM was determined as 67%.
On to `N[C@@H](CC(=O)O)C(=O)N[C@@H](CSSC[C@H](NC(=O)[C@@H](N)CC(=O)O)C(=O)O)C(=O)O` [(Asp-Cys)2, N,N'-bis-α-aspartyl-L-cystine] (I: H-Asp-Cys-OH / II: H-Asp-Cys-OH; disulfide I:2-II:2), for which, in “Solubility in water”, the “Solubility in 1000 ml of water” value is recorded as above 50 g. In addition, the “Hydrolysis by γ-glutamyltransferase” value in data set [6] is recorded as “not hydrolyzed”. Besides, the remaining at 0.5 h, 2.18 mM in data set [2] amounted to 30%.
As to `N[C@@H](CCC(=O)N[C@@H](CSSC[C@H](NC(=O)CC[C@H](N)C(=O)O)C(=O)O)C(=O)O)C(=O)O` [(γ-Glu-Cys)2, L-glutamyl-L-cysteine disulfide], in [3], the remaining at 0.5 h, 2.46 mM was 84%. The “Hydrolysis in mouse plasma” value in data set [3] was “hydrolyzed in plasma only with difficulty”. Moreover, in data set [7], the “Utilization in the synthesis of kidney glutathione” value is “can be utilized in the synthesis of kidney glutathione”. The “Solubility in 1000 ml of water” value in “Solubility in water” is given as above 70 g. The “Hydrolysis by γ-glutamyltransferase” value in data set [6] is “almost completely hydrolyzed”. The “Glu (glutamic acid) in kidney” value is listed as 5.54 μmole/g wet weight of kidney in [5] (0 min after administration), 14.82 μmole/g wet weight of kidney in data set [5] (1 min after administration), 22.5 μmole/g wet weight of kidney in data set [5] (5 min after administration) and 18.14 μmole/g wet weight of kidney in data set [5] (20 min after administration). For the same compound, in [2], the “Hydrolysis in human plasma” value is “hydrolyzed in plasma only with difficulty”. Further, the remaining at 0.5 h, 2.18 mM in data set [2] was 85%. Further, the Decomposition on standing entry in [8] (pH 6.5, 40° C. for 60 days) was “not decomposed”. Further, the “Decomposition by heat treatment” value in data set [8] (pH 6.5, 110° C. for 20 minutes) is listed as “hardly decomposed”.
For `C[C@H](NC(=O)[C@@H](N)CSSC[C@H](N)C(=O)N[C@@H](C)C(=O)O)C(=O)O` [(Cys-Ala)2, L-cysteinyl-bis-L-alanine] (I: H-Cys-Ala-OH / II: H-Cys-Ala-OH; disulfide I:1-II:1), the “Solubility in 1000 ml of water” value in the data set “Solubility in water” worked out at 8.1 g.
As for `C[C@H](N)C(=O)N[C@@H](CSSC[C@H](NC(=O)[C@H](C)N)C(=O)O)C(=O)O` [(Ala-Cys)2, bis-α-L-alanyl-L-cystine, reference compound] (I: H-Ala-Cys-OH / II: H-Ala-Cys-OH; disulfide I:2-II:2), the remaining at 0.5 h, 2.46 mM in data set [3] worked out at 0%. The “Solubility in 1000 ml of water” value in the data set “Solubility in water” is recorded as above 50 g. Besides, in [6], the “Hydrolysis by γ-glutamyltransferase” value was “not hydrolyzed”. The “Ala (alanine) in kidney” value in data set [5] (0 min after administration) was 2.33 μmole/g wet weight of kidney; in data set [5] (1 min after administration), 2.87 μmole/g wet weight of kidney; in data set [5] (5 min after administration), 2.59 μmole/g wet weight of kidney; in [5] (20 min after administration), 2.16 μmole/g wet weight of kidney. In addition, the remaining at 0.5 h, 2.18 mM in [2] amounted to 26%.
